Assay [1] deals with dopaminergic D3 receptor (Homo sapiens, UniProt P35462). The experiment in a line: Binding assay D3 (h), [3H]methyl-spiperone, CHO cells. The following applies: read-out: D3 [%]. The arrangement: expressed in transfected cells; host or cells: CHO cells. The method, then: (§1) The specific ligand binding to the receptors is defined as the difference between the total binding and the nonspecific binding determined in the presence of an excess of so unlabelled ligand.
(§2) The specific Ligand binding to the receptor is defined as the difference between total and non-specific binding determined in the presence of an excess of unlabelled ligand. The compounds were tested at a concentration of 1×10^−6 M, and scintillation counting was the method of detection of ligand binding.

Assay [2] relates to adrenergic α1 receptor. The experiment in a line: Binding assay α1 (non-selective), [3H]prazosin, rat cerebral cortex. As to conditions: percent inhibition of control specific binding; compounds tested at 1×10^−6 M. The method, then: as §1, §2
For assay [3], the target named is T1, serotoninergic 5-HT1A receptor (Homo sapiens, UniProt P08908).
T1 sequence (P08908 1-422): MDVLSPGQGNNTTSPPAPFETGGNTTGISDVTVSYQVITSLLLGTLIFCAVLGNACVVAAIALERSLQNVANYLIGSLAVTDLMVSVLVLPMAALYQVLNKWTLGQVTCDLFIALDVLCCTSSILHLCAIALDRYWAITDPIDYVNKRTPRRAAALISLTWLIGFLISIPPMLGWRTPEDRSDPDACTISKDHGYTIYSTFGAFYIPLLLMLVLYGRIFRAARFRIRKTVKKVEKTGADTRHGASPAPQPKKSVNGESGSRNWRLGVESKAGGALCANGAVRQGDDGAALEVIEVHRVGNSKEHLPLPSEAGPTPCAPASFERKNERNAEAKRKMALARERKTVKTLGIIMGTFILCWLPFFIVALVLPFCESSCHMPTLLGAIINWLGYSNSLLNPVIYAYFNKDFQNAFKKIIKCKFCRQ
The assay can be described thus: Binding assay 5-HT1A (h), [3H]8-OH-DPAT, HEK-293 cells. The arrangement: expressed in transfected cells; host or cells: HEK-293 cells. The following applies: read-out: 5-HT1A. The protocol: as §1, §2

The target in assay [4] is serotoninergic 5-HT2A receptor (Homo sapiens, UniProt P28223). The assay can be described thus: Binding assay 5-HT2A (h), [3H]ketanserin, HEK-293 cells. Further details: expressed in transfected cells; host or cells: HEK-293 cells. The following applies: read-out: 5-HT2A. The method, then:
as §1, §2

Assay [5] deals with serotoninergic 5-HT7 receptor (Homo sapiens, UniProt P34969). The assay can be described thus: Binding assay 5-HT7 (h), [3H]LSD, CHO cells. Further details: expressed in transfected cells; host or cells: CHO cells. As to conditions: read-out: 5-HT7. The protocol: as §1, §2
Sequence of serotoninergic 5-HT7 receptor (P34969 whole entry): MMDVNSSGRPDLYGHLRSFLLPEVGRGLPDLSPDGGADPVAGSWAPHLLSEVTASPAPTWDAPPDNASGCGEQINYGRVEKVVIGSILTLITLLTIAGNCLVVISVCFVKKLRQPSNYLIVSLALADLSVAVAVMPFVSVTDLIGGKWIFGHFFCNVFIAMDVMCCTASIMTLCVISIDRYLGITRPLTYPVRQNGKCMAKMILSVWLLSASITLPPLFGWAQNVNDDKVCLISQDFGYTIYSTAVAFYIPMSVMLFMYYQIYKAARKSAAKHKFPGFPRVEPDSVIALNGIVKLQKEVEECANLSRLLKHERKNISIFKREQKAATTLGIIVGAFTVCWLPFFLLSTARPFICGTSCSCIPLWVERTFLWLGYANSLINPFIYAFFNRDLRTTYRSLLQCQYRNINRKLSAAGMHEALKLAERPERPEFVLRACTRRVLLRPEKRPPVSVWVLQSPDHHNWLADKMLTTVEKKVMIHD
Assay [6] concerns the target serotoninergic 5-HT6 receptor (Homo sapiens, UniProt P50406). The assay can be described thus: Binding assay 5-HT6 (h), [3H]LSD, CHO cells. The arrangement: expressed in transfected cells; host or cells: CHO cells. As to conditions: read-out: 5-HT6. The method, then:
as §1, §2

Assay [7] addresses dopaminergic D2 receptor (Homo sapiens, UniProt P14416). The assay can be described thus: Binding assay D2S (h), [3H]methyl-spiperone, HEK-293 cells. The arrangement: expressed in transfected cells; host or cells: HEK-293 cells. As to conditions: read-out: D2 [%]. The protocol: as §1, §2
Assay [8] deals with T2, serotonine transporter (SERT) receptor (Homo sapiens, UniProt P31645).
T2 construct: expressed in transfected cells; host or cells: CHO cells
T2 sequence (P31645 whole entry): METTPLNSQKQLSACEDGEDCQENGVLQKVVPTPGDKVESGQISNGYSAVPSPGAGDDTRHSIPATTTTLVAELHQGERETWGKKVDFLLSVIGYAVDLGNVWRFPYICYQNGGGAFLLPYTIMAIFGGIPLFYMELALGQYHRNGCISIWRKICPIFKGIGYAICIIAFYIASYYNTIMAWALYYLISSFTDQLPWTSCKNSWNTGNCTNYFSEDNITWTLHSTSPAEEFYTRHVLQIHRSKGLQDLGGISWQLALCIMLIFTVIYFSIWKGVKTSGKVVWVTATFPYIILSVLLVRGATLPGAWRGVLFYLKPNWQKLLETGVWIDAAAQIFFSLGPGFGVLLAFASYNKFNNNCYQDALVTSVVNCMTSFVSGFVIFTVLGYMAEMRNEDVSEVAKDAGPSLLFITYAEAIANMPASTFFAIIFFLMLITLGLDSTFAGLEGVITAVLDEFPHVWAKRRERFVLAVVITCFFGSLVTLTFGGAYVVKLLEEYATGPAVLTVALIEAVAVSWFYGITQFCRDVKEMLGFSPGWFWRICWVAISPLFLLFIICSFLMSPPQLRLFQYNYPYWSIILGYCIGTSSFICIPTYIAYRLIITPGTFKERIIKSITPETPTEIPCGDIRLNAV
The assay can be described thus: Binding assay SERT (h), [3H]imipramine, CHO cells. As to conditions: read-out: SERT [%]. The method, then: as §1, §2

The text below walks through data of patent US8822517B2, “Arylosulfonamides for the treatment of CNS diseases” (Adamed SP. Z O.O., priority 2010, dated 2014).

Sequence of dopaminergic D2 receptor (P14416 1-414 isoform P14416-2): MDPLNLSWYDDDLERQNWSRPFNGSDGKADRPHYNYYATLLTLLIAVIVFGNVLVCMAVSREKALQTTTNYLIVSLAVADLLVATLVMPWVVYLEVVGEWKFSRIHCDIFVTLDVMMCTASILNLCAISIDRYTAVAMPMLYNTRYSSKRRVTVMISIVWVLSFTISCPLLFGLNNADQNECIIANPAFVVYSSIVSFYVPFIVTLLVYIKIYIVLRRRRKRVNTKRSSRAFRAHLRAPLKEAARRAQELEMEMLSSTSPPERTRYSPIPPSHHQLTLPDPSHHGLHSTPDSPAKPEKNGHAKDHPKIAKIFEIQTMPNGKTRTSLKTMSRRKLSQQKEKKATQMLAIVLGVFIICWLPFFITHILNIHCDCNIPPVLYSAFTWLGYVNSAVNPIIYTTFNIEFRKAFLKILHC
Sequence of dopaminergic D3 receptor (P35462 whole entry): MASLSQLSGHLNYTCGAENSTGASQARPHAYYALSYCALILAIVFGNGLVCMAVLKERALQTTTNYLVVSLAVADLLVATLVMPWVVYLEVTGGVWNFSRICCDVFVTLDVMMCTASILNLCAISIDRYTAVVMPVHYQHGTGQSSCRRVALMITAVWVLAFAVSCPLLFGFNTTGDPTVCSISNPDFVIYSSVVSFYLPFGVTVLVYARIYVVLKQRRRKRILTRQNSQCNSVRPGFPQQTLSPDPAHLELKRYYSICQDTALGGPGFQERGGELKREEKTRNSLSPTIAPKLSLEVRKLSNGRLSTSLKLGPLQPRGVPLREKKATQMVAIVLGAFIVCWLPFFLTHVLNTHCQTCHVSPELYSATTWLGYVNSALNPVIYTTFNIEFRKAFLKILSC
Sequence of serotoninergic 5-HT2A receptor (P28223 whole entry): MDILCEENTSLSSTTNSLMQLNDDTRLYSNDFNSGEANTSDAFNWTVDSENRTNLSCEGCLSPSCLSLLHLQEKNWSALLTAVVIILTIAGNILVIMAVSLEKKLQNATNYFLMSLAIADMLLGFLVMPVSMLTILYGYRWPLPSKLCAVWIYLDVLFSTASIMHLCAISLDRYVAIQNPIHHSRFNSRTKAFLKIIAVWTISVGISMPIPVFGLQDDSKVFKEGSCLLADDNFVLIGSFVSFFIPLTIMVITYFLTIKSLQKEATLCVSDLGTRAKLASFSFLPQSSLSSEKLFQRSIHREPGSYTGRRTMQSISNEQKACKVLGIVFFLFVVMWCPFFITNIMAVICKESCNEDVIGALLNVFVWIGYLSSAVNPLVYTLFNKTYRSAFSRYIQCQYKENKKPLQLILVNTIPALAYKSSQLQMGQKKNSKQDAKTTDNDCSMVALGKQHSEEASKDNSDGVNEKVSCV
Sequence of serotoninergic 5-HT6 receptor (P50406 whole entry): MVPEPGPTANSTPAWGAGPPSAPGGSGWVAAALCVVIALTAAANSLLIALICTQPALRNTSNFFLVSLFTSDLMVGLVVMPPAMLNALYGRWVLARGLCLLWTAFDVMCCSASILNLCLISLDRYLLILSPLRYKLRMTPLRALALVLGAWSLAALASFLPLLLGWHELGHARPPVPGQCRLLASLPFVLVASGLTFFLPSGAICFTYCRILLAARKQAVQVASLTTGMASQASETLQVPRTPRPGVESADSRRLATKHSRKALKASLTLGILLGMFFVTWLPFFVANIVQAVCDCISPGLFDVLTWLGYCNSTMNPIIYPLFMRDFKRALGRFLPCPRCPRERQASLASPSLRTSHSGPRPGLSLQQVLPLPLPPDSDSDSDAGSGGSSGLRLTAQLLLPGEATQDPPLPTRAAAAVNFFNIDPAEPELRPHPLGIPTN

Consider `O=c1[nH]c2cccc(N3CCN(CCCCNS(=O)(=O)c4ccc(Cl)cc4)CC3)c2[nH]1` [Compound 421, 4-Chloro-N-[4-[4-(2-oxo-1,3-dihydrobenzimidazol-4-yl)piperazin-1-yl]butyl]benzenesulphonamide], for which, in assay [1], the inhibition at 1 µM was found to be 94%. The “α1 [%]” value in assay [2] was 88%.
`O=S(=O)(NCCCN1CC=C(c2c[nH]c3ccc(F)cc23)CC1)c1cccc(F)c1` [Compound 436, 3-Fluoro-N-[3-[4-(5-fluoro-1H-indol-3-yl)-3,6-dihydro-2H-pyridin-1-yl]propyl]benzenesulphonamide]: the inhibition at 1 µM is 96% in assay [1], 85% in assay [3] and 56% in assay [4].
Regarding `O=S(=O)(NCCCN1CCC(c2noc3cc(F)ccc23)CC1)c1ccc(Cl)cc1` [Compound 328, 4-Chloro-N-[3-[4-(6-fluoro-1,2-benzoxazol-3-yl)piperidin-1-yl]propyl]benzenesulphonamide], the inhibition at 1 µM in assay [5] was determined as 92%; in assay [6] it was 87%; in assay [7], 108%; in assay [8], 7%; in assay [1] it was 99%; in assay [3], 58%. For the same compound, in assay [4], the inhibition at 1 µM amounted to 90%.
Regarding `O=S(=O)(NCCCN1CCC(c2noc3cc(F)ccc23)CC1)c1cccc(Br)c1` [Compound 110, 3-Bromo-N-[3-[4-(6-fluoro-1,2-benzoxazol-3-yl)piperidin-1-yl]propyl]benzenesulphonamide], the inhibition at 1 µM came to 91% in assay [5]; 96% in assay [6]; 109% in assay [7]; 8% in assay [8]; 97% in assay [1]; 55% in assay [3]. In assay [4], the inhibition at 1 µM came out at 99%.
Consider `O=c1[nH]c2cccc(N3CCN(CCCCNS(=O)(=O)c4ccc(F)cc4)CC3)c2[nH]1` [Compound 420, 4-Fluoro-N-[4-[4-(2-oxo-1,3-dihydrobenzimidazol-4-yl)piperazin-1-yl]butyl]benzenesulphonamide], for which the inhibition at 1 µM in assay [1] was found to be 97%. In addition, in assay [2], the “α1 [%]” value was found to be 82%.
Turning to `O=c1[nH]c2cccc(N3CCN(CCCCNS(=O)(=O)c4cccc(F)c4)CC3)c2[nH]1` [Compound 175, 3-Fluoro-N-[4-[4-(2-oxo-1,3-dihydrobenzimidazol-4-yl)piperazin-1-yl]butyl]benzenesulphonamide], the inhibition at 1 µM in assay [1] stood at 87%. The “α1 [%]” value in assay [2] is listed as 82%.
The corresponding values for `O=c1[nH]c2cccc(N3CCN(CCCCNS(=O)(=O)c4cccc(Cl)c4)CC3)c2[nH]1` [Compound 173, 3-Chloro-N-[4-[4-(2-oxo-1,3-dihydrobenzimidazol-4-yl)piperazin-1-yl]butyl]benzenesulphonamide] are 98% and 89%.
In the case of `Cc1c(S(=O)(=O)NCCCN2CCC(c3noc4cc(F)ccc34)CC2)sc2ccc(Cl)cc12` [Compound 348, 5-Chloro-N-[3-[4-(6-fluoro-1,2-benzoxazol-3-yl)piperidin-1-yl]propyl]-3-methylbenzothiophene-2-sulphonamide], the inhibition at 1 µM came to 87% in assay [5]; 96% in assay [6]; 104% in assay [7]; 6% in assay [8]; 102% in assay [1]; 36% in assay [3]. Moreover, in assay [4], the inhibition at 1 µM is 107%.
For `O=S(=O)(NCCCN1CCN(c2cccc3c2OCCO3)CC1)c1cccc(Br)c1` [Compound 413, 3-Bromo-N-[3-[4-(2,3-dihydro-1,4-benzodioxin-5-yl)piperazin-1-yl]propyl]benzenesulphonamide], the inhibition at 1 µM in assay [3] turned out to be 88%; in assay [4], 40%. For the same compound, in assay [2], the “α1 [%]” value was 90%.
Turning to `O=S(=O)(NCCCCN1CC=C(c2c[nH]c3ccc(F)cc23)CC1)c1cccc(O)c1` [Compound 434, N-[4-[4-(5-Fluoro-1H-indol-3-yl)-3,6-dihydro-2H-pyridin-1-yl]butyl]-3-hydroxybenzenesulphonamide], the inhibition at 1 µM in assay [1] is 98%.
Regarding `O=S(=O)(NCCCN1CCN(c2nsc3ccccc23)CC1)c1ccc(Cl)cc1` [Compound 250, N-[3-[4-(1,2-Benzothiazol-3-yl)piperazin-1-yl]propyl]-4-chlorobenzenesulphonamide], the inhibition at 1 µM in assay [5] turned out to be 88%; in assay [6], 73%; in assay [7] it was 97%; in assay [8], 23%; in assay [1], 85%; in assay [3] it was 98%. Also, the inhibition at 1 µM in assay [4] came to 92%.
For the compound `O=S(=O)(NCCCN1CCC(c2noc3cc(F)ccc23)CC1)c1ccc(Br)cc1` [Compound 330, 4-Bromo-N-[3-[4-(6-fluoro-1,2-benzoxazol-3-yl)piperidin-1-yl]propyl]benzenesulphonamide], the inhibition at 1 µM in assay [5] is 90%; in assay [6] it was 83%; in assay [7], 108%; in assay [8] it was -2%; in assay [1], 99%; in assay [3], 67%. Moreover, in assay [4], the inhibition at 1 µM turned out to be 93%.
With `O=S(=O)(NCCCN1CCN(c2cccc3c2OCCO3)CC1)c1ccc(F)c(F)c1` [Compound 410, N-[3-[4-(2,3-Dihydro-1,4-benzodioxin-5-yl)piperazin-1-yl]propyl]-3,4-difluorobenzenesulphonamide], the inhibition at 1 µM in assay [3] is 96%; in assay [4], 42%. Moreover, in assay [2], the “α1 [%]” value was 84%.
With `Cc1[nH]c2ccc(Cl)cc2c1C1=CCN(CCCCNS(=O)(=O)c2ccc(F)cc2)CC1` [Compound 368, N-[4-[4-(5-Chloro-2-methyl-1H-indol-3-yl)-3,6-dihydro-2H-pyridin-1-yl]butyl]-4-fluorobenzenesulphonamide], the inhibition at 1 µM was 42% in assay [5]; 96% in assay [6]; 41% in assay [7]; 14% in assay [8]; 94% in assay [1]; -7% in assay [3]. In addition, in assay [4], the inhibition at 1 µM is 64%.
Consider `Cc1cccc(S(=O)(=O)NCCCCN2CCN(c3cccc4[nH]c(=O)[nH]c34)CC2)c1` [Compound 422, 3-Methyl-N-[4-[4-(2-oxo-1,3-dihydrobenzimidazol-4-yl)piperazin-1-yl]butyl]benzenesulphonamide], for which the inhibition at 1 µM in assay [1] is 98%. In assay [2], the “α1 [%]” value came to 86%.
On to `O=S(=O)(NCCCCN1CCN(c2cccc3c2OCCO3)CC1)c1cccs1` [Compound 397, N-[4-[4-(2,3-Dihydro-1,4-benzodioxin-8-yl)piperazin-1-yl]butyl]thiophene-2-sulphonamide], for which the inhibition at 1 µM in assay [3] is 95%; in assay [4], 13%. Moreover, the “α1 [%]” value in assay [2] was found to be 92%.
Turning to `O=S(=O)(NCCCN1CCC(c2noc3cc(F)ccc23)CC1)c1cccc(Cl)c1` [Compound 106, 3-Chloro-N-[3-[4-(6-fluoro-1,2-benzoxazol-3-yl)piperidin-1-yl]propyl]benzenesulphonamide], the inhibition at 1 µM came to 91% in assay [5]; 93% in assay [6]; 108% in assay [7]; 2% in assay [8]; 97% in assay [1]; 63% in assay [3]. The inhibition at 1 µM in assay [4] amounted to 97%.
Consider `O=S(=O)(NCCCN1CCC(c2noc3cc(F)ccc23)CC1)c1ccc(Cl)s1` [Compound 341, 5-Chloro-N-[3-[4-(6-fluoro-1,2-benzoxazol-3-yl)piperidin-1-yl]propyl]thiophene-2-sulphonamide], for which the inhibition at 1 µM in assay [5] is 78%; in assay [6], 93%; in assay [7], 98%; in assay [8], 8%; in assay [1], 98%; in assay [3], 74%. Moreover, the inhibition at 1 µM in assay [4] turned out to be 102%.
